In patent US8053409B2, “Agent for prophylaxis of reflex sympathetic dystrophy after cerebral apoplexy” (Asahi Kasei Pharma Corporation, priority 2006, dated 2011):

Legend:
[1] = tested on: patients with hemiplegia attributed to cerebrovascular disease (stroke); test: Test of prevention of onset of post-stroke RSD; type: in vivo, human
Excerpt: Test subjects were 33 patients with hemiplegia attributed to cerebrovascular disease (stroke) at Brunnstrom stage III or lower in either the upper limb or a finger on admission. Patients already developing RSD (shoulder-hand syndrome) on admission and patients with pain in the shoulder joint or swollen paralyzed limbs were excluded from the test. […] On the other hand, 21 test subjects were classified into a rehabilitation alone group (control group) and compared with the EL administration group. Physical therapy and therapeutic exercise, occupational therapy, and the management of the paralyzed limbs were performed thoroughly in all the cases. […] EL administration was initiated 11 to 59 days after an attack of stroke (25.8 days on average) and continued until 5 months after the attack of stroke. The same observation period was applied to the control group. The test subjects were diagnosed as developing RSD (shoulder-hand syndrome) if they had diffuse pain not localized to the shoulder joint, edema involving skin color changes, skin temperature abnormalities, and range of motion limitations, and the practice of their rehabilitation was restricted. These criteria agreed to Veldman's diagnostic criteria or diagnostic criteria, for CRPS-type 1 provided by the International Association for the Study of Pain.
Activities of daily living (ADL) were evaluated on the basis of the Barthel Index (BI) and the range of motion (ROM) of shoulder joint. The movable range of shoulder joint (also referred to as “shoulder ROM”) was regarded as restricted (Shoulder-ROM-restrictions were present.) if either abduction or flexion was restricted in measurement. The test subjects were also examined for sensory impairment, aphasia, and unilateral spatial neglect on admission.
Statistical analysis was conducted with unpaired t-test, Fisher's exact test, or Wilcoxon test, and 5% or lower significance level was regarded as being significant.

[2] = tested on: patients with hemiplegia attributed to cerebrovascular disease (stroke) who developed RSD (shoulder-hand syndrome); test: Test of treatment of post-stroke RSD; type: in vivo, human; settings: therapeutic administration group, at completion of administration
Description: EL was administered after the onset of RSD (shoulder-hand syndrome) in the same use and dose as in Example 1 to 11 patients with hemiplegia attributed to cerebrovascular disease (stroke) at Brunnstrom stage III or lower in either the upper limb or a finger on admission, who developed RSD (shoulder-hand syndrome). These patients were classified into a therapeutic administration group. On the other hand, the EL administration group of Example 1 was compared as a control (preventive administration group) with the therapeutic administration group.

[3] = tested on: RSD triggered and developed by a trauma or surgical invasion; settings: subjects having no anamnesis of RSD, after a trauma or surgical invasion; cited from earlier work
[4] = EL preventive administration group (12 subjects), 20 units intramuscularly once a week, continued until 5 months after stroke
[5] = preventive administration group, at completion of administration

| Compound | Incidence of RSD converted to all patients with hemiplegia attributed to stroke in the facility ([1]; EL administration group, control group approximately 8.7%) | The number of test subjects developing post-stroke RSD: Developed [1, 4] | The number of test subjects developing post-stroke RSD: Not developed [1, 4] | Cases that developed RSD (incidence) ([1]; EL preventive administration group, 1 of the 12 cases, control group 52.4%) | Incidence of RSD when EL administration was initiated within 48 days after stroke ([1]; cases with administration initiated within 48 days after stroke) | Barthel index, Average ± SE [1, 5] | Barthel index, Median [1, 5] | No RSD, the number of persons [1, 5] | Incidence of RSD until discharge from hospital compared with the unadministered patient group ([1]; repetitive administration to hemiplegia patients without RSD on admission) | Barthel index, Average ± SE [2] | Barthel index, Median [2] | No RSD, the number of persons [2] | Preventive effect on the initial onset of RSD [3] |
| --- | --- | --- | --- | --- | --- | --- | --- | --- | --- | --- | --- | --- | --- |
| 1-butyric acid-7-(L-2-aminobutyric acid)-26-L-aspartic acid-27-L-valine-29-L-alanine-calcitonin [elcatonin] | approximately 1.3% | 1 | 11 | 8.3% | 0% | 60.8 ± 9.3 | 72.5 | 11 | suppressed significantly and remarkably | 31.8 ± 7.8 | 25 | 0 |  |
| O=C1O[C@H]([C@@H](O)CO)C(O)=C1O [vitamin C] |  |  |  |  |  |  |  |  |  |  |  |  | preventive effect |
